PubChem BioAssay (NCI)
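How tested: cells in 96-well plates exposed to compound for 48 hours at five concentrations. GI50 marks 50% less growth. TGI: total growth inhibition.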

What was measured:
Test in all cases: DTP human tumour cell line panel, 48 h
HOP-62 NSCLC = test system: HOP-62 NSCLC
SF-295 CNS = test system: SF-295 CNS
HCT-116 colon = test system: HCT-116 colon
NCI-H226 lung = test system: NCI-H226 lung
SK-OV-3 ovarian = test system: SK-OV-3 ovarian
MCF7 breast = test system: MCF7 breast
OVCAR-4 ovarian = test system: OVCAR-4 ovarian
M14 melanoma = test system: M14 melanoma
RXF 393 renal = test system: RXF 393 renal
BT-549 breast = test system: BT-549 breast
NCI-H522 lung = test system: NCI-H522 lung
SK-MEL-5 melanoma = test system: SK-MEL-5 melanoma
UO-31 renal = test system: UO-31 renal
PC-3 prostate = test system: PC-3 prostate
SK-MEL-28 melanoma = test system: SK-MEL-28 melanoma
SR leukemia = test system: SR leukemia
HS 578T breast = test system: HS 578T breast
MDA-MB-231 breast = test system: MDA-MB-231 breast
SNB-75 CNS = test system: SNB-75 CNS
CAKI-1 renal = test system: CAKI-1 renal
SW-620 colon = test system: SW-620 colon
HOP-92 NSCLC = test system: HOP-92 NSCLC
IGROV1 ovarian = test system: IGROV1 ovarian
A549 NSCLC = test system: A549 NSCLC
OVCAR-3 ovarian = test system: OVCAR-3 ovarian
OVCAR-8 ovarian = test system: OVCAR-8 ovarian
HCT-15 colon = test system: HCT-15 colon
CCRF-CEM leukemia = test system: CCRF-CEM leukemia

With `CCCCCCNC(=O)Oc1ccc(/C(=C(/C)c2ccccc2)c2ccc(OCCN3CCCCCC3)cc2)cc1` the GI50 (HOP-62 NSCLC) was 13 µM, the TGI (HOP-62 NSCLC) was 26.9 µM and the GI50 (SF-295 CNS) was 5.74 µM. For the same compound, the TGI (SF-295 CNS) was 18.6 µM, the GI50 (HCT-116 colon) was 4.33 µM and the TGI (HCT-116 colon) was 16.9 µM. It also gave a GI50 (NCI-H226 lung) of 13.3 µM, a TGI (NCI-H226 lung) of 28.7 µM and a GI50 (SK-OV-3 ovarian) of 13 µM. For the same compound, the TGI (SK-OV-3 ovarian) was 26.4 µM, the GI50 (MCF7 breast) was 172 nM and the TGI (MCF7 breast) was 13.1 µM. The GI50 (OVCAR-4 ovarian) was 10 µM, the TGI (OVCAR-4 ovarian) was 23.4 µM and the GI50 (M14 melanoma) was 2890 nM. For the same compound, the TGI (M14 melanoma) was 11.1 µM, the GI50 (RXF 393 renal) was 2630 nM and the TGI (RXF 393 renal) was 9.11 µM. It also gave a GI50 (BT-549 breast) of 8.55 µM, a TGI (BT-549 breast) of 21.8 µM and a GI50 (NCI-H522 lung) of 12.6 µM. For the same compound, the TGI (NCI-H522 lung) was 26 µM, the GI50 (SK-MEL-5 melanoma) was 14.2 µM and the TGI (SK-MEL-5 melanoma) was 27.6 µM. The GI50 (UO-31 renal) was 4.02 µM, the TGI (UO-31 renal) was 17 µM and the GI50 (PC-3 prostate) was 6.2 µM. The TGI (PC-3 prostate) was 20.4 µM, the GI50 (SK-MEL-28 melanoma) was 5.98 µM and the TGI (SK-MEL-28 melanoma) was 19.8 µM. It also gave a GI50 (SR leukemia) of 2580 nM, a TGI (SR leukemia) of 12 µM and a GI50 (HS 578T breast) of 8.02 µM. For the same compound, the TGI (HS 578T breast) was 26.9 µM, the GI50 (MDA-MB-231 breast) was 12.8 µM and the TGI (MDA-MB-231 breast) was 26.8 µM. The GI50 (SNB-75 CNS) was 9.25 µM, the TGI (SNB-75 CNS) was 21.7 µM and the GI50 (CAKI-1 renal) was 2740 nM. For the same compound, the TGI (CAKI-1 renal) was 11.9 µM, the GI50 (SW-620 colon) was 3.18 µM and the TGI (SW-620 colon) was 12.5 µM. It also gave a GI50 (HOP-92 NSCLC) of 2900 nM, a TGI (HOP-92 NSCLC) of 14.9 µM and a GI50 (IGROV1 ovarian) of 11.9 µM. The TGI (IGROV1 ovarian) was 27.9 µM, the GI50 (A549 NSCLC) was 12.1 µM and the TGI (A549 NSCLC) was 26.4 µM. The GI50 (OVCAR-3 ovarian) was 12 µM, the TGI (OVCAR-3 ovarian) was 28.8 µM and the GI50 (OVCAR-8 ovarian) was 13.1 µM. It also gave a TGI (OVCAR-8 ovarian) of 26.6 µM, a GI50 (HCT-15 colon) of 2830 nM and a TGI (HCT-15 colon) of 9.61 µM. The GI50 (CCRF-CEM leukemia) was 11.5 µM and the TGI (CCRF-CEM leukemia) was greater than 100 µM.
